Data from ChEMBL document CHEMBL1201861, “Genomics of Drug Sensitity in Cancer screening data, Wellcome Trust Sanger Institute”.

Tests used:
Test in all cases: cells
KURAMOCHI = format: functional, cell-based, Homo sapiens; conditions: Homo sapiens, KURAMOCHI;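 note: growth inhibition of KURAMOCHI cells, read out with a cell viability assay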
Description: SANGER: Inhibition of human KURAMOCHI cell growth in a cell viability assay.

KE-37 = format: functional, cell-based, Homo sapiens; conditions: Homo sapiens, KE-37;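 note: growth inhibition of KE-37 cells, read out with a cell viability assay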
Description: SANGER: Inhibition of human KE-37 cell growth in a cell viability assay.

D-247MG = format: functional, cell-based, Homo sapiens; conditions: Homo sapiens, D-247MG
Description: SANGER: Inhibition of human D-247MG cell growth in a cell viability assay.

KNS-42 = format: functional, cell-based, Homo sapiens; conditions: Homo sapiens, KNS-42;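 note: growth inhibition of KNS-42 cells, read out with a cell viability assay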
Description: SANGER: Inhibition of human KNS-42 cell growth in a cell viability assay.

AM-38 = format: functional, cell-based, Homo sapiens; conditions: Homo sapiens, AM-38;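 note: growth inhibition of AM-38 cells of human origin, read out by a cell viability assay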
Description: SANGER: Inhibition of human AM-38 cell growth in a cell viability assay.

EM-2 = format: functional, cell-based, Homo sapiens; conditions: Homo sapiens, EM-2;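 note: growth inhibition of EM-2 cells, read out with a cell viability assay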
Description: SANGER: Inhibition of human EM-2 cell growth in a cell viability assay.

NOMO-1 = format: functional, cell-based, Homo sapiens; conditions: Homo sapiens, NOMO-1;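 note: growth inhibition of human NOMO-1 cells measured by a cell viability assay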
Description: SANGER: Inhibition of human NOMO-1 cell growth in a cell viability assay.

EW-24 = format: functional, cell-based, Homo sapiens; conditions: Homo sapiens, EW-24;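 note: human EW-24 cancer cell line, growth inhibition read out via a cell viability assay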
Description: SANGER: Inhibition of human EW-24 cell growth in a cell viability assay.

GI-ME-N = format: functional, cell-based, Homo sapiens; conditions: Homo sapiens, GI-ME-N;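 note: growth inhibition of human GI-ME-N cells, read out with a cell viability assay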
Description: SANGER: Inhibition of human GI-ME-N cell growth in a cell viability assay.

TE-10 = format: functional, cell-based, Homo sapiens; conditions: Homo sapiens, TE-10;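 note: growth inhibition of TE-10 cells, measured by a cell viability assay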
Description: SANGER: Inhibition of human TE-10 cell growth in a cell viability assay.

NTERA-2-cl-D1 = format: functional, cell-based, Homo sapiens; conditions: Homo sapiens, NTERA-2-cl-D1;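 note: inhibition of cell growth, measured with a cell viability assay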
Description: SANGER: Inhibition of human NTERA-S-cl-D1 cell growth in a cell viability assay.

DB = format: functional, cell-based, Homo sapiens; conditions: Homo sapiens, DB
Description: SANGER: Inhibition of human DB cell growth in a cell viability assay.

A101D = format: functional, cell-based, Homo sapiens; conditions: Homo sapiens, A101D;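 note: growth inhibition of the cell line, measured with a viability assay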
Description: SANGER: Inhibition of human A101D cell growth in a cell viability assay.

TE-12 = format: functional, cell-based, Homo sapiens; conditions: Homo sapiens, TE-12;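 note: growth inhibition of TE-12 cells, read out by a cell viability assay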
Description: SANGER: Inhibition of human TE-12 cell growth in a cell viability assay.

NB17 = format: functional, cell-based, Homo sapiens; conditions: Homo sapiens, NB17;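 note: growth inhibition of NB17 cells, read out with a cell viability assay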
Description: SANGER: Inhibition of human NB17 cell growth in a cell viability assay.

OCUB-M = format: functional, cell-based, Homo sapiens; conditions: Homo sapiens, OCUB-M;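 note: growth inhibition of the cancer cell line, read out through a cell viability assay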
Description: SANGER: Inhibition of human OCUB-M cell growth in a cell viability assay.

NB5 = format: functional, cell-based, Homo sapiens; conditions: Homo sapiens, NB5;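 note: growth inhibition of NB5 cells, read out as cell viability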
Description: SANGER: Inhibition of human NB5 cell growth in a cell viability assay.

NCI-N87 = format: functional, cell-based, Homo sapiens; conditions: Homo sapiens, NCI-N87;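 note: growth inhibition of human NCI-N87 cells, read out with a cell viability assay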
Description: SANGER: Inhibition of human NCI-N87 cell growth in a cell viability assay.

BB49-HNC = format: functional, cell-based, Homo sapiens; conditions: Homo sapiens, BB49-HNC;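 note: cell viability assay read-out, reported as inhibition of BB49-HNC cell growth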
Description: SANGER: Inhibition of human BB49-HNC cell growth in a cell viability assay.

CGTH-W-1 = format: functional, cell-based, Homo sapiens; conditions: Homo sapiens, CGTH-W-1;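 note: growth inhibition of human CGTH-W-1 cells measured by cell viability assay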
Description: SANGER: Inhibition of human CGTH-W-1 cell growth in a cell viability assay.

ES1 = format: functional, cell-based, Homo sapiens; conditions: Homo sapiens, ES1;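 note: growth inhibition of ES1 cells, read out with a cell viability assay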
Description: SANGER: Inhibition of human ES1 cell growth in a cell viability assay.

RH-1 = format: functional, cell-based, Homo sapiens; conditions: Homo sapiens, RH-1;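 note: growth inhibition of human RH-1 cells, read out with a cell viability assay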
Description: SANGER: Inhibition of human RH-1 cell growth in a cell viability assay.

COR-L88 = format: functional, cell-based, Homo sapiens; conditions: Homo sapiens, COR-L88;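 note: growth inhibition of COR-L88 cells, read out with a cell viability assay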
Description: SANGER: Inhibition of human COR-L88 cell growth in a cell viability assay.

J-RT3-T3-5 = format: functional, cell-based, Homo sapiens; conditions: Homo sapiens, J-RT3-T3-5;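 note: cell viability assay measuring growth inhibition of human J-RT3-T3-5 cells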
Description: SANGER: Inhibition of human J-RT3-T3-5 cell growth in a cell viability assay.

ML-2 = format: functional, cell-based, Homo sapiens; conditions: Homo sapiens, ML-2;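 note: growth inhibition of ML-2 cells, measured with a cell viability readout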
Description: SANGER: Inhibition of human ML-2 cell growth in a cell viability assay.

C2BBe1 = format: functional, cell-based, Homo sapiens; conditions: Homo sapiens, C2BBe1;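 note: growth inhibition of C2BBe1 cells, read out through a viability assay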
Description: SANGER: Inhibition of human C2BBe1 cell growth in a cell viability assay.

NCI-H1395 = format: functional, cell-based, Homo sapiens; conditions: Homo sapiens, NCI-H1395;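 note: cell viability assay read-out quantifying reduced proliferation of human NCI-H1395 cells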
Description: SANGER: Inhibition of human NCI-H1395 cell growth in a cell viability assay.

COLO-829 = format: functional, cell-based, Homo sapiens; conditions: Homo sapiens, COLO-829
Description: SANGER: Inhibition of human COLO-829 cell growth in a cell viability assay.

KALS-1 = format: functional, cell-based, Homo sapiens; conditions: Homo sapiens, KALS-1;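 note: growth inhibition of KALS-1 cells, determined with a cell viability assay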
Description: SANGER: Inhibition of human KALS-1 cell growth in a cell viability assay.

K5 = format: functional, cell-based, Homo sapiens; conditions: Homo sapiens, K5
Description: SANGER: Inhibition of human K5 cell growth in a cell viability assay.

DOHH-2 = format: functional, cell-based, Homo sapiens; conditions: Homo sapiens, DOHH-2;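 note: growth inhibition of human DOHH-2 cells, read out with a cell viability assay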
Description: SANGER: Inhibition of human DOHH-2 cell growth in a cell viability assay.

SW 954 = format: functional, cell-based, Homo sapiens; conditions: Homo sapiens, SW 954;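 note: growth inhibition of SW954 human cancer cells, read out as cell viability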
Description: SANGER: Inhibition of human SW954 cell growth in a cell viability assay.

SW684 = format: functional, cell-based, Homo sapiens; conditions: Homo sapiens, SW684;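 note: growth inhibition of human SW684 cells, measured by a cell viability assay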
Description: SANGER: Inhibition of human SW684 cell growth in a cell viability assay.

NCI-H23 = format: functional, cell-based, Homo sapiens; conditions: Homo sapiens, NCI-H23;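 note: cell viability assay measuring growth inhibition of NCI-H23 cells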
Description: SANGER: Inhibition of human NCI-H23 cell growth in a cell viability assay.

JVM-2 = format: functional, cell-based, Homo sapiens; conditions: Homo sapiens, JVM-2;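 note: growth inhibition of JVM-2 cells determined by a cell viability assay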
Description: SANGER: Inhibition of human JVM-2 cell growth in a cell viability assay.

RPMI-8226 = format: functional, cell-based, Homo sapiens; conditions: Homo sapiens, RPMI-8226
Description: SANGER: Inhibition of human RPMI-8226 cell growth in a cell viability assay.

SK-UT-1 = format: functional, cell-based, Homo sapiens; conditions: Homo sapiens, SK-UT-1;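 note: growth inhibition of SK-UT-1 cells, measured by a cell viability assay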
Description: SANGER: Inhibition of human SK-UT-1 cell growth in a cell viability assay.

COLO-684 = format: functional, cell-based, Homo sapiens; conditions: Homo sapiens, COLO-684
Description: SANGER: Inhibition of human COLO-684 cell growth in a cell viability assay.

TE-9 = format: functional, cell-based, Homo sapiens; conditions: Homo sapiens, TE-9;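 note: cell growth inhibition, measured with a cell viability readout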
Description: SANGER: Inhibition of human TE-9 cell growth in a cell viability assay.

ONS-76 = format: functional, cell-based, Homo sapiens; conditions: Homo sapiens, ONS-76;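 note: growth inhibition of human ONS-76 cells, read out with a cell viability assay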
Description: SANGER: Inhibition of human ONS-76 cell growth in a cell viability assay.

MV4-11 = format: functional, cell-based, Homo sapiens, MV-4-11; conditions: Homo sapiens, MV4-11;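 note: cell viability readout measuring growth inhibition of human MV-4-11 cells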
Description: SANGER: Inhibition of human MV-4-11 cell growth in a cell viability assay.

RPMI-8866 = format: functional, cell-based, Homo sapiens; conditions: Homo sapiens, RPMI-8866
Description: SANGER: Inhibition of human RPMI-8866 cell growth in a cell viability assay.

LS-123 = format: functional, cell-based, Homo sapiens; conditions: Homo sapiens, LS-123
Description: SANGER: Inhibition of human LS-123 cell growth in a cell viability assay.

HH = format: functional, cell-based, Homo sapiens; conditions: Homo sapiens, HH
Description: SANGER: Inhibition of human HH cell growth in a cell viability assay.

K562 = format: functional, cell-based, Homo sapiens; conditions: Homo sapiens, K562
Description: SANGER: Inhibition of human K-562 cell growth in a cell viability assay.

SK-MEL-1 = format: functional, cell-based, Homo sapiens; conditions: Homo sapiens, SK-MEL-1;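 note: growth inhibition of human SK-MEL-1 cells, read out by a cell viability assay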
Description: SANGER: Inhibition of human SK-MEL-1 cell growth in a cell viability assay.

COLO-668 = format: functional, cell-based, Homo sapiens; conditions: Homo sapiens, COLO-668
Description: SANGER: Inhibition of human COLO-668 cell growth in a cell viability assay.

HuTu80 = format: functional, cell-based, Homo sapiens, HUTU-80; conditions: Homo sapiens, HuTu80;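 note: growth inhibition of HuTu80 human cells, determined with a cell viability readout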
Description: SANGER: Inhibition of human HUTU-80 cell growth in a cell viability assay.

NCI-H1355 = format: functional, cell-based, Homo sapiens; conditions: Homo sapiens, NCI-H1355;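 note: growth inhibition of human NCI-H1355 cells, read out by a cell viability assay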
Description: SANGER: Inhibition of human NCI-H1355 cell growth in a cell viability assay.

Compound: Cc1cn(-c2cc(NC(=O)c3ccc(C)c(Nc4nccc(-c5cccnc5)n4)c3)cc(C(F)(F)F)c2)cn1 [NILOTINIB]
- IC50 (KURAMOCHI): > 2 µM
- IC50 (KE-37): > 2 µM
- IC50 (D-247MG): > 2 µM
- IC50 (KNS-42): > 2 µM
- IC50 (AM-38): > 2 µM
- IC50 (EM-2): 0.0041 µM
- IC50 (NOMO-1): > 2 µM
- IC50 (EW-24): > 2 µM
- IC50 (GI-ME-N): > 2 µM
- IC50 (TE-10): > 2 µM
- IC50 (NTERA-2-cl-D1): > 2 µM
- IC50 (DB): > 2 µM
- IC50 (A101D): > 2 µM
- IC50 (TE-12): > 2 µM
- IC50 (NB17): > 2 µM
- IC50 (OCUB-M): > 2 µM
- IC50 (NB5): > 2 µM
- IC50 (NCI-N87): > 2 µM
- IC50 (BB49-HNC): > 2 µM
- IC50 (CGTH-W-1): 0.649 µM
- IC50 (ES1): > 2 µM
- IC50 (RH-1): > 2 µM
- IC50 (COR-L88): > 2 µM
- IC50 (J-RT3-T3-5): > 2 µM
- IC50 (ML-2): > 2 µM
- IC50 (C2BBe1): > 2 µM
- IC50 (NCI-H1395): > 2 µM
- IC50 (COLO-829): > 2 µM
- IC50 (KALS-1): > 2 µM
- IC50 (K5): > 2 µM
- IC50 (DOHH-2): > 2 µM
- IC50 (SW 954): > 2 µM
- IC50 (SW684): > 2 µM
- IC50 (NCI-H23): > 2 µM
- IC50 (JVM-2): > 2 µM
- IC50 (RPMI-8226): > 2 µM
- IC50 (SK-UT-1): > 2 µM
- IC50 (COLO-684): > 2 µM
- IC50 (TE-9): > 2 µM
- IC50 (ONS-76): > 2 µM
- IC50 (MV4-11): > 2 µM
- IC50 (RPMI-8866): > 2 µM
- IC50 (LS-123): > 2 µM
- IC50 (HH): > 2 µM
- IC50 (K562): > 2 µM
- IC50 (SK-MEL-1): > 2 µM
- IC50 (COLO-668): > 2 µM
- IC50 (HuTu80): > 2 µM
- IC50 (NCI-H1355): > 2 µM
